The values that follow are results of earlier work, collected in patent WO2011103442A2, “Synthesis of the potent immunosuppressant agents dalesconol a and b” (Columbia University in the City of New York, priority 2010, dated 2011).

In brackets after ≈: the same amount, converted by molar mass.

The conditions of series [1]: for IC50, immunosuppressive activity: as repeated in the Discussion.
In series [2] the test system is ConA-induced proliferation of mouse spleen cells. As to conditions: in vitro.
The next series deals with acetylcholinesterase (Homo sapiens, UniProt P22303).
acetylcholinesterase, sequence (P22303 32-614): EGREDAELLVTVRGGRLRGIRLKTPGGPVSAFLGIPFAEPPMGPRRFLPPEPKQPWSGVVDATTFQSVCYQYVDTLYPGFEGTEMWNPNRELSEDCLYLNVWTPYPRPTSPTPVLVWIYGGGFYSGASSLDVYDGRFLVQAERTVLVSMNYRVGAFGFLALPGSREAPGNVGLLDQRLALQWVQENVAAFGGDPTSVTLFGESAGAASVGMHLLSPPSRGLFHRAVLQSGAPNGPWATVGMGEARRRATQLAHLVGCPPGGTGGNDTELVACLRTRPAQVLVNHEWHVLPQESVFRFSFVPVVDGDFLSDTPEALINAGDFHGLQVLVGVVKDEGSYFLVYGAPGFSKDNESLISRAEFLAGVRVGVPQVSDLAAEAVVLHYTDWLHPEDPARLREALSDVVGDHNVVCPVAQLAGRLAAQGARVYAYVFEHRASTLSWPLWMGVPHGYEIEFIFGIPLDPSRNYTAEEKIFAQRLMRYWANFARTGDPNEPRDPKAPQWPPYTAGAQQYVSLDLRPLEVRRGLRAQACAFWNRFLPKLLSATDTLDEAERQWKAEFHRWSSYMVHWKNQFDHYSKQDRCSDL
For series [3] the following is noted: compared with cyclosporin A.

Take `O=C1CC2CC(=O)c3c(O)cccc3C23C(=C2C=CC(=O)c4c(O)ccc3c42)c2cccc(O)c21` (stereo not drawn) [dalesconol A]: the “IC50, immunosuppressive activity” value in series [1] was 0.00016 ng/mL (≈ 0.000346 nM). For the same compound, the “immunosuppressive potency of racemic mixture versus separated enantiomers” value in series [1] (racemic mixture) is on record as “more potent than their separated enantiomers”. Also, the “selectivity factor, activity versus cytotoxic effects” value in series [2] is on record as “greater than 500”. The acetylcholinesterase inhibition result at acetylcholinesterase was “potent acetylcholinesterase inhibitor”. Also, the “background cytotoxicity relative to cyclosporin A” value in series [3] was “significantly reduced background cytotoxicity”.
As for cyclosporin A [reference compound], the “IC50, immunosuppressive activity” value in series [1] is 6e-05 ng/mL.
